{"source": "patent US20220339135A1", "about": "“COMPOSITIONS AND METHODS FOR MODULATING AN INFLAMMATORY RESPONSE” (Enzychem Lifesciences Corporation, priority 2019, published 2022)", "key": {"[1]": {"system": "MIP-2, IL-6, CXCL8 in RAW 264.7 or HaCaT cells", "experiment": "IMQ-induced chemokine release, ELISA", "format": "cell-based", "conditions": "PLAG 1, 10, 100 μg/ml, IMQ 12 hours, dose-dependent", "procedure": "RAW 264.7 or HaCaT cells were divided into three groups: 1) control (non-treated) group, 2) IMQ treated group, and 3) IMQ/PLAG treated group. For IMQ treated group, cells were treated with 1, 10, 100 μg/ml of DMSO (as solvent control) for 1 hour and treated with 5 μg/mL of IMQ for 12 hours. For IMQ/PLAG treated group, cells were treated with 1, 10, 100 μg/ml of PLAG for 1 hour and treated with 5 μg/mL of IMQ for 12 hours. MIP-2 (A), IL-6 (B) and CXCL8 (C) in the culture supernatants were analyzed with the cognate antibody using ELISA kit. Modulation of CXCL8 expression in the IMQ treated HaCaT cells by MAPK inhibitors, SCH 772984 (ERK inhibitor, (D)), SP600125 (JNK inhibitor, (E)) and SB203580 (p38 inhibitor, (F)) was evaluated using ELISA kit (BD bioscience, New Jersey, USA) according to the manufacturer's instructions. The cytokine levels were estimated by interpolation from a standard curve using an ELISA reader (Molecular Devices, Sunnyvale, USA) at 450 nm."}, "[2]": {"system": "gemcitabine-induced neutropenia", "conditions": "cited from earlier work"}, "[3]": {"system": "MIP-2 and IFN-β in LPS treated macrophage cells", "experiment": "MIP-2 and IFN-β in LPS treated macrophage cells", "format": "cell-based"}, "[4]": {"system": "HMGB1, S100A8, S100A9, LDH in supernatant of THP-1 cells", "experiment": "MSU-induced DAMP and LDH release", "format": "cell-based, human", "conditions": "PLAG 100 μg/ml, MSU 400 μg/ml", "procedure": "THP-1 cells were divided into two groups: 1) MSU treated group and 2) MSU/PLAG treated group. For MSU treated group, THP-1 cells were stimulated with monosodium urate (MSU) crystal (400 μg/ml) for 0, 15, 30, 60 minutes. For MSU/PLAG treated group, THP-1 cells were pre-incubated with PLAG (100 μg/ml) for 1 hour and then stimulated with monosodium urate (MSU) crystal (400 μg/ml) for 0, 15, 30, 60 minutes. Then, cells were centrifuged, and the supernatant was harvested. Add 50 μL 5×SDS sample buffer to 200 μL supernatant of THP-1 cells. Proteins from each sample were separated by sodium dodecyl sulfate (SDS)-polyacrylamide gel electrophoresis on 8% polyacrylamide gels and the proteins were blotted onto a PVDF membrane (Millipore Corporation, Germany). The membrane was blocked with 5% non-fat dried milk (BD bioscience) in PBS containing 0.05% Tween-20 (Calbiochem) for 1 hour. The membrane was incubated with anti-high mobility group box 1 (HMGB1) (abcam), anti-S100A9 (abcam) at 4° C. overnight. After washing with PBS containing 0.05% Tween-20, the membrane was stained with goat anti-rabbit IgG peroxidase (ENZO). Target proteins were detected with Immobilon Western Chemiluminescent HRP Substrate (Millipore Corporation). Lactate dehydrogenase (LDH) of Supernatant was measured using the LDH assay kit."}, "[5]": {"experiment": "PLAG uptake in the cisterna chyli (TG colorimetric assay)", "format": "in vivo, mice", "procedure": "Balb/c mice were purchased from Koatech Co. (Pyungtaek, Republic of Korea) and maintained under specific pathogen-free conditions. All animal experimental procedures were performed in accordance with the Guide for the Care and Use of Laboratory Animals. The study included 30 male Balb/c mice (mean age: 9 weeks, range: 8 to 10 weeks). For the time point study (experiment 1), mice were divided into 5 groups, with 3 mice per group. Mice were given a single administration of PLAG orally (2500 mg/kg BW) in a volume of 150 μL. And then mice are sacrificed after various time intervals, 0, 15, 30 and 60 minutes. To determine the difference in PLAG concentration (experiment 2), mice were divided into 5 groups, with 3 mice per group. They were given a single administration of PLAG orally (50, 250, 500, and 2500 mg/kg BW) in a volume of 150 μL, then sacrificed after 1 h post-injection.\nThe blood sample was obtained under anesthesia by heart puncture. Serum samples were separated by centrifuge 3,000 rpm for 10 minutes and stored at −80° C. for analysis. Lymph fluid from the cisterna chyli was collected according to the methods described by Masayuki, lymph fluid in cisterna chyli appears milky white color with a high concentration of triglyceride (TG) and located along the abdominal vena cava and aorta on the cranial side of the renal vein. A 30 ½-gauge syringe was carefully inserted into cisterna chyli. Then recovered the lymphatic fluid, diluted liquid with 10 uL of phosphate-buffered saline (Welgene, Gyeongsangbuk-do, Republic of Korea). Diluted lymph fluid samples were kept frozen for assay.\nTriglyceride in blood and lymph fluid was measured using a commercial assay kit (Wako Diagnostics, Osaka, Japan). Because PLAG has structural similarities to TGs containing glycerol backbone, this method may be applicable to PLAG detection. Multi calibrator lipids (Wako) were used for standard reagent. The absorbance was read at 650 nm using an ELISA microplate reader (Molecular Devices Corporation).\n2500mpk of PLAG was orally administered to diet mice whose body weight is 25 g, absorbed PLAG was collected from cisterna chyli at 1 hr. Absorbed PLAG was evaluated by TG colorimetric assay. The TG concentration was multiplied by the dilution factor and the conversion factor, which is the coefficient required to convert to triglyceride concentration to the PLAG concentration. Administered 62.5 mg of PLAG was absorbed through enterocytes and detected 28.2 mg of PLAG at cisterna chyli within 1 hour with about 50% of absorptive efficacy (FIG. 21E)."}, "[6]": {"experiment": "Whole-body autoradiography after single oral [14C] PLAG", "format": "in vivo, rats", "conditions": "200 mg/kg oral", "procedure": "Tissue distribution of the PLAG after single oral administration of [^14C] PLAG was conducted in Biotoxtech (Korea) using whole-body autoradiography. Crl:CD (SD) strain albino rats received the single oral administration of [^14C] PLAG at a dose of 200 mg/kg and the animals were sacrificed by CO2 asphyxiation at defined times, and whole body autoradiograms were prepared to investigate the tissue distribution of radioactivity and its time course. Sampling time points are 15 minutes, 1 hour, 8 hours, and 24 hours after administration. The carcass was sliced into 40 micro meter-thick coronal plane sections that were collected on adhesive tape (NA-70, Nakagawa). The freeze-dried sections covered with a protective membrane were placed in contact with imaging plate (BAS-SR2025, Fuji Photo Film) and the plates were exposed in lead-sealed boxes at room temperature for 24 hours. After exposure, the radioactivity recorded on the imaging plate was analyzed using a bio-imaging analyzer system."}}}
{"smiles": "CCCCC/C=C\\C/C=C\\CCCCCCCC(=O)OC(COC(C)=O)COC(=O)CCCCCCCCCCCCCCC", "note": "(racemic) [PLAG, 1-palmitoyl-2-linoleoyl-3-acetylglycerol]", "values": [{"measurement": "MIP-2, IL-6, CXCL8 induced by IMQ", "setting": "[1]", "value": "gradually decreased"}, {"measurement": "gemcitabine-induced neutropenia", "setting": "[2]; Jeong et al., 2019", "value": "attenu¬ated the neutropenia"}, {"measurement": "anti-cancer effect of gemcitabine", "setting": "[2]; athymic nude mice implanted with a human myeloma cell line", "value": "did not interfere"}, {"measurement": "modulation of chemokine MIP-2 in silenced cell", "setting": "[3]; LPL or GPIHBP1 silenced cell", "value": "not capable of modulating"}, {"measurement": "chemokine MIP-2 and cytokine IFN-β", "setting": "[3]; LPS treated macrophage cells", "value": "effectively down-regulates"}, {"measurement": "release of MSU crystal-induced HMGB1, S100A8, S100A9 and LDH to the supernatant", "setting": "[4]", "value": "modulated the release"}, {"measurement": "PLAG detected at cisterna chyli / lymph fluid", "setting": "[5]; 62.5 mg administered (2500mpk, 25 g mice), 1 hr", "value": 28.2, "unit": "mg"}, {"measurement": "time absorbed PLAG observed at the cisterna chyli", "setting": "[5]; 50, 250, 500, 2500mpk, dose-dependent", "value": "≤ 1", "unit": "h"}, {"measurement": "time PLAG detected in cisterna chyli", "setting": "[5]; 2500mpk, mice fasted 6 hours", "value": 60, "unit": "min"}, {"measurement": "absorptive efficacy", "setting": "[5]; cisterna chyli within 1 hour", "value": "about 50%"}, {"measurement": "radioactivity in stomach and intestinal tract incl. luminal contents", "setting": "[6]; 15 minutes to 1 hour", "value": "high levels"}, {"measurement": "radioactivity in the liver and brown fat tissues", "setting": "[6]; 8 hours", "value": "Moderate levels"}, {"measurement": "radioactivity in the luminal side of the stomach", "setting": "[6]; 8 hours", "value": "high levels"}, {"measurement": "radioactivity in the liver", "setting": "[6]; 24 hours", "value": "low levels"}, {"measurement": "radioactivity in other tissues", "setting": "[6]; any sampling time point", "value": "not different from background level"}, {"measurement": "radioactivity in the liver", "setting": "[6]; up to 1 hour", "value": "Low levels"}]}
